1 compound from ChEMBL document CHEMBL5370605, “Discovery of Novel Fedratinib-Based HDAC/JAK/BRD4 Triple Inhibitors with Remarkable Antitumor Activity against Triple Negative Breast Cancer” (J Med Chem, 2023) can be followed below.

Data set [1] concerns the target T1, Receptor-type tyrosine-protein kinase FLT3 (Homo sapiens, UniProt P36888).
T1 sequence (P36888 whole entry): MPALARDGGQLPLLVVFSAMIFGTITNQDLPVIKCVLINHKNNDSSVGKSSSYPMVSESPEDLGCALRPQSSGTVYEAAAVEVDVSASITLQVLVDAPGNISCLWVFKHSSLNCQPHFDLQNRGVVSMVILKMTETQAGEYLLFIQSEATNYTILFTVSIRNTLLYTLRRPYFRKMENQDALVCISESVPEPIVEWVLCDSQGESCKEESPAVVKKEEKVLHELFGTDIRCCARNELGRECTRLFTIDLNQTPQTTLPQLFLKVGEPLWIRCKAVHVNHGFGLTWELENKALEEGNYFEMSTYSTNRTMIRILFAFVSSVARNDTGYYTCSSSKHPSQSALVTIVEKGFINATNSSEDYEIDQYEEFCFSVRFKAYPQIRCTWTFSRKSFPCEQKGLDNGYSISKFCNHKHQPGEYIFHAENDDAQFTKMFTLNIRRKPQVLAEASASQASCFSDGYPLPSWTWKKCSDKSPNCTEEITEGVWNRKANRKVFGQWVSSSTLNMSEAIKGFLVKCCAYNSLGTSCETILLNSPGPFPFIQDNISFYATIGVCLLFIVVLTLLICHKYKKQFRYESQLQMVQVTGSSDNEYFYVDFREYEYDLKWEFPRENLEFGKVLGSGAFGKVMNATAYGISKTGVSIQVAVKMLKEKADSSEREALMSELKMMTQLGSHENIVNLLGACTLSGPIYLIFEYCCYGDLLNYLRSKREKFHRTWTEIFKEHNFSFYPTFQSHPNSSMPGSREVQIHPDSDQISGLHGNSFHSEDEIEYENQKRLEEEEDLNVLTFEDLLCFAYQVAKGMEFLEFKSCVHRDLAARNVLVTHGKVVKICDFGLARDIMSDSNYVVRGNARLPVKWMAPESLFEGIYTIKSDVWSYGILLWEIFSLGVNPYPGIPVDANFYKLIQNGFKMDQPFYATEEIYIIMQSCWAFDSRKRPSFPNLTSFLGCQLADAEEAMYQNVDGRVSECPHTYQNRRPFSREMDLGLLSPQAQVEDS
The data set can be described thus: Inhibition of FLT3 (unknown origin) incubated for 40 mins in presence of ATP by Kinase-glo luminescent assay. For orientation: In Kinase-Glo more light means more ATP remaining.

Data set [2] can be described thus: MRT (0 to t) in ICR (CD-1) mouse at 50 mg/kg, ip measured for 24 hrs by LC-MS/MS analysis. It counts as ADME, organism-based. As to conditions: in vivo.
For data set [3], the target named is Tyrosine-protein kinase JAK2 (Homo sapiens, UniProt O60674). The data set can be described thus: Inhibition of JAK2 (unknown origin) incubated for 40 mins in presence of ATP by Kinase-glo luminescent assay.
Data set [4] is described as follows: Bioavailability in ICR (CD-1) mouse at 50 mg/kg, ip measured for 24 hrs by LC-MS/MS analysis. The following applies: in vivo, ip, 50 mg/kg, 24 h. It counts as ADME, organism-based.
Data set [5] concerns the target T2, Protein deacetylase HDAC6 (Homo sapiens, UniProt Q9UBN7).
T2 sequence (Q9UBN7 whole entry): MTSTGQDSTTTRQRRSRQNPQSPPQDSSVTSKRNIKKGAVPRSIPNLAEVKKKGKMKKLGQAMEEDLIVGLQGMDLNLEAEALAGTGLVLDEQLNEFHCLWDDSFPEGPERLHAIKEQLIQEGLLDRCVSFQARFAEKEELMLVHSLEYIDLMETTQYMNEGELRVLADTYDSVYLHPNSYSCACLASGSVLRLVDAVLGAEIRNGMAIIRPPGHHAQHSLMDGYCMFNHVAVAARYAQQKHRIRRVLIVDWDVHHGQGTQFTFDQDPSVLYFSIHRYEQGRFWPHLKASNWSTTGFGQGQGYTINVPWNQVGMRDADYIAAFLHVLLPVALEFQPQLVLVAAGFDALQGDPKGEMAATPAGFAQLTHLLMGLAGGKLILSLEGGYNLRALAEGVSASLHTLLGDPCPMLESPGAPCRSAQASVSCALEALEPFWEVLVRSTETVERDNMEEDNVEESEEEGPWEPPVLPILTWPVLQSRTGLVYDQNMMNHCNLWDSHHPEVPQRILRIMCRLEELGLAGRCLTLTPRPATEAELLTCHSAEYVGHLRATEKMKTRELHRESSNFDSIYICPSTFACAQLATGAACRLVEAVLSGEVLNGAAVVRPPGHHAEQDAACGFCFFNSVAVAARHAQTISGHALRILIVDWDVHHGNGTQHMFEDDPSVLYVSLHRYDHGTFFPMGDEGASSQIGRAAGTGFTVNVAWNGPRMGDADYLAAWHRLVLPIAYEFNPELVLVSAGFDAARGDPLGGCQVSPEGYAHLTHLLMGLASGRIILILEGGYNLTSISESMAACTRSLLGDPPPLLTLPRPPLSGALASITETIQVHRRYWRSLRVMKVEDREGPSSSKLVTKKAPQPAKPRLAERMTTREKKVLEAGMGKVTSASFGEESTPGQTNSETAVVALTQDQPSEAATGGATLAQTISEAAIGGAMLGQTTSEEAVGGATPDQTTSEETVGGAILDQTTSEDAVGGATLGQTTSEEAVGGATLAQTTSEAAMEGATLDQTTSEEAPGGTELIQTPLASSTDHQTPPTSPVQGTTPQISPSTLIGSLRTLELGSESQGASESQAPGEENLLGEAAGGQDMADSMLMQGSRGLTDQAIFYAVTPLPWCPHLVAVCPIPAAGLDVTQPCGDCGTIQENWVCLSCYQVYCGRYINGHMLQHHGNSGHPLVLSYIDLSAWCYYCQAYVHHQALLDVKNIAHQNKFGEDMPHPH
The data set can be described thus: Inhibition of HDAC6 (unknown origin) using Boc-Lys(Ac)-AMC as substrate incubated for 30 mins by fluorescence based analysis.

Data set [6] deals with Proto-oncogene tyrosine-protein kinase receptor Ret (Homo sapiens, UniProt P07949). Put plainly: Inhibition of RET (unknown origin) incubated for 40 mins in presence of ATP by Kinase-glo luminescent assay.
A short description of data set [7]: Cmax in ICR (CD-1) mouse at 50 mg/kg, ip measured for 24 hrs by LC-MS/MS analysis. The format is ADME, organism-based. More on the design: time 24 hrs, dose 50 mg/kg, route ip. As to conditions: in vivo.

One may read the IC50 as the midpoint of a concentration-inhibition curve. By MRT last is commonly meant the average time that molecules of a dose stay in the body. In general, Cmax refers to the maximum level reached in the sampled fluid or tissue.

Tyrosine-protein kinase JAK2, sequence (O60674 whole entry): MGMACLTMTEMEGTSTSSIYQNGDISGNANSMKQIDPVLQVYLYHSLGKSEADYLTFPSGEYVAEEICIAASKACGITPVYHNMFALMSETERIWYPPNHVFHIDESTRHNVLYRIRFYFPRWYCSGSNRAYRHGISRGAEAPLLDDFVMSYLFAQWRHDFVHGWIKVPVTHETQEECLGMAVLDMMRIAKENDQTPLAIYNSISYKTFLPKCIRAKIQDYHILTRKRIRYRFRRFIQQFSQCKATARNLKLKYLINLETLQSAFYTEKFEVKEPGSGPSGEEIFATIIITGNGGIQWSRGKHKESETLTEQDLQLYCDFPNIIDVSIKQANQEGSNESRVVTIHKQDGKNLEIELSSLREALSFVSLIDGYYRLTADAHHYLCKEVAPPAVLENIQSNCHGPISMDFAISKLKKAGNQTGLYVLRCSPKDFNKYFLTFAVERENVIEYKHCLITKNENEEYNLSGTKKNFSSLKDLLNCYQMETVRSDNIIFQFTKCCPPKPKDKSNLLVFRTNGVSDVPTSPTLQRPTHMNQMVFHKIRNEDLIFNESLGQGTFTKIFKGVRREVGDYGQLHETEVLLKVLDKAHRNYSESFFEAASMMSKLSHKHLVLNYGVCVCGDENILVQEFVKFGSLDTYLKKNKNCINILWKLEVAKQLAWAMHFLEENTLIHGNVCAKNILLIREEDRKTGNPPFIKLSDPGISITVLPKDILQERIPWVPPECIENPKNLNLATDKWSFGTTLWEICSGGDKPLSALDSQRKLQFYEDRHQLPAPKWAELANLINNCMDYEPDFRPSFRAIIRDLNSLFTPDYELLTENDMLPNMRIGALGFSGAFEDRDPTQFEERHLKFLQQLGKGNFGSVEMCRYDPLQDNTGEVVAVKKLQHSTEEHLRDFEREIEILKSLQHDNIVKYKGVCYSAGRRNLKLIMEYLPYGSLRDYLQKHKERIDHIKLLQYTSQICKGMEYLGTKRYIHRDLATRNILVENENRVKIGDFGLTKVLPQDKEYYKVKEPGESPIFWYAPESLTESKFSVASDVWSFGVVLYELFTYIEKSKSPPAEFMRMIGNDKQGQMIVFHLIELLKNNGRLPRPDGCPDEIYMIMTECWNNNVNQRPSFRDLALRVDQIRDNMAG
Proto-oncogene tyrosine-protein kinase receptor Ret, sequence (P07949 whole entry): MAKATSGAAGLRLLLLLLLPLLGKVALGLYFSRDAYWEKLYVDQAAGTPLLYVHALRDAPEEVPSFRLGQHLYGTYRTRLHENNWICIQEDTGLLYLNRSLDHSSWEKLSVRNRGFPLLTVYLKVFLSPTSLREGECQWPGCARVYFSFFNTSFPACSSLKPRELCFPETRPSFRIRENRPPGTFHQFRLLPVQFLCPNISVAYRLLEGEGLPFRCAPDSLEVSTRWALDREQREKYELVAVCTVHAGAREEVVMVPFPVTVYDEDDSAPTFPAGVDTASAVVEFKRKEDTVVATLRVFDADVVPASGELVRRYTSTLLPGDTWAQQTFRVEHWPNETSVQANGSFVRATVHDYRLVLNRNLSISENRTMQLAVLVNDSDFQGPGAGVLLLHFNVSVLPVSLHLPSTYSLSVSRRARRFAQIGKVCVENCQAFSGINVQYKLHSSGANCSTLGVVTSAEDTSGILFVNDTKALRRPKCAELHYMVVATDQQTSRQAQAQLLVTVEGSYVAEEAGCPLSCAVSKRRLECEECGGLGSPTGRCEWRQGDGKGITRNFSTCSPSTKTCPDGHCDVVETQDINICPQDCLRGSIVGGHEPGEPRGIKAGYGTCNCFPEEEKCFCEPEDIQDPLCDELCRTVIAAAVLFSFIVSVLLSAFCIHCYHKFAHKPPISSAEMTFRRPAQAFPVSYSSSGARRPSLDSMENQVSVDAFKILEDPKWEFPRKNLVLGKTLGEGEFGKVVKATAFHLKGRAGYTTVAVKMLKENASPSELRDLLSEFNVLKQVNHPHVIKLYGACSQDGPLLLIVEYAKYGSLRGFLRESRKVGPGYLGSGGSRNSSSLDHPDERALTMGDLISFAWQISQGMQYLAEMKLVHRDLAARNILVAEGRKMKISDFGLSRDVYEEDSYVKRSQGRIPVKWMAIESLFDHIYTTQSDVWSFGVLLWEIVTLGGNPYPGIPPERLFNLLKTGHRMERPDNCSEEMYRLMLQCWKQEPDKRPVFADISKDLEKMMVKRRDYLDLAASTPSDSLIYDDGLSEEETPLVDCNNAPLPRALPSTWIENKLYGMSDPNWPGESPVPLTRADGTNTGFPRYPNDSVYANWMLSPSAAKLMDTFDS

For the compound `Cc1cnc(Nc2ccc(OCCN3CCCC3)cc2)nc1Nc1ccc(C(=O)NO)cc1`, the IC50 was 0.0109 µM in data set [1], 0.0018 µM in data set [3], 0.27 µM in data set [5] and 0.047 µM in data set [6]. Besides, the MRT last at 24 h in data set [2] stood at 2.18 h. In data set [4], the F was 151%. In data set [7], this compound registered a Cmax of 9560 ng/mL.
